Measured values reported in the supplement of paper PMC11451515.

Key:
Details in all cases: 48 h
[1] = tested on: NOMO1; test: cell viability relative to DMSO control; higher = less cytotoxic
Outline: (§1)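 Before seeding, each leukemia line was adapted for at least four passages in each medium. NOMO1 or SEM cells (500 cells/well) and P12-Ichikawa cells (1000 cells/well) went into 1536-well plates at 5 μl, then received library compounds in DMSO by pin dosing across 11 threefold concentrations, 47 μM to 0.79 nM. Readout was CellTiter-Glo One luminescence after 48 h at 37°C, and viability is given as a per-plate percentage of DMSO wells, with cell-free wells as background.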

[2] = tested on: SEM cells; test: as above
Outline: as §1

[3] = tested on: P12-Ichikawa; test: as above
Outline: as §1

[4] = tested on: NOMO1; test: AUC of viability dose-response curve (% viability x log10 dose units); higher = less sensitive
Outline: (§2)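 Area under the curve was integrated by trapezoidal rule from a log-logistic fit of normalised viability, with curves exceeding full viability scaled and quality-control failures removed. The fit had four parameters over log10 doses. Viability came from CellTiter-Glo One luminescence, normalised per plate to DMSO and cell-free wells, after leukemia cells adapted to each medium (500 or 1000 cells/well, 1536-well plates) were exposed to library compounds in DMSO for 48 h at 37°C. The 11 threefold doses ran from 47 μM to 0.79 nM.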

[5] = tested on: P12-Ichikawa; test: as above
Outline: as §2

[6] = tested on: SEM cells; test: as above
Outline: as §2

CNC(=O)Nc1ccc(-c2nc(N3CC4CCC(C3)O4)c3cnn(C4CCC5(CC4)OCCO5)c3n2)cc1
cell viability [%]
Details | [1] | [2] | [3]
HPLM + 10% dialyzed FBS, 0.000781 µM | 101 | 109 | 107
HPLM + 10% dialyzed FBS, 0.00234 µM | 88.6 | 106 | 106
HPLM + 10% dialyzed FBS, 0.00702 µM | 97.2 | 97.8 | 95.7
HPLM + 10% dialyzed FBS, 0.0211 µM | 86.1 | 83.9 | 92.5
HPLM + 10% dialyzed FBS, 0.0632 µM | 73 | 73.8 | 95.4
HPLM + 10% dialyzed FBS, 0.19 µM | 75.9 | 53.6 | 82.7
HPLM + 10% dialyzed FBS, 0.569 µM | 70.4 | 58.1 | 86.1
HPLM + 10% dialyzed FBS, 1.71 µM | 63.8 | 53 | 76.7
HPLM + 10% dialyzed FBS, 5.12 µM | 63.3 | 45.9 | 74.2
HPLM + 10% dialyzed FBS, 15.4 µM | 57.2 | 34.3 | 74.9
HPLM + 10% dialyzed FBS, 46.1 µM | 51.6 | 36.9 | 72.5
RPMI 5 mM glucose + 10% FBS, 0.000781 µM | 108 | 76.6 | 96.9
RPMI 5 mM glucose + 10% FBS, 0.00234 µM | 115 | 77.9 | 84.1
RPMI 5 mM glucose + 10% FBS, 0.00702 µM | 118 | 65.6 | 75.8
RPMI 5 mM glucose + 10% FBS, 0.0211 µM | 99.3 | 51 | 75.5
RPMI 5 mM glucose + 10% FBS, 0.0632 µM | 91.4 | 43.2 | 69.8
RPMI 5 mM glucose + 10% FBS, 0.19 µM | 81.1 | 36.8 | 65.8
RPMI 5 mM glucose + 10% FBS, 0.569 µM | 74.7 | 40.1 | 64.2
RPMI 5 mM glucose + 10% FBS, 1.71 µM | 73 | 34 | 60.8
RPMI 5 mM glucose + 10% FBS, 5.12 µM | 72.2 | 25.3 | 57.1
RPMI 5 mM glucose + 10% FBS, 15.4 µM | 65.1 | 22.9 | 49.6
RPMI 5 mM glucose + 10% FBS, 46.1 µM | 69.8 | 14.5 | 53
RPMI 5 mM glucose + 10% dialyzed FBS, 0.000781 µM | 105 | 105 | 106
RPMI 5 mM glucose + 10% dialyzed FBS, 0.00234 µM | 101 | 106 | 98
RPMI 5 mM glucose + 10% dialyzed FBS, 0.00702 µM | 84.3 | 88.7 | 91.1
RPMI 5 mM glucose + 10% dialyzed FBS, 0.0211 µM | 79.3 | 80.7 | 82.1
RPMI 5 mM glucose + 10% dialyzed FBS, 0.0632 µM | 77.6 | 71.6 | 81.8
RPMI 5 mM glucose + 10% dialyzed FBS, 0.19 µM | 68.5 | 56.2 | 70.5
RPMI 5 mM glucose + 10% dialyzed FBS, 0.569 µM | 71.5 | 59.4 | 67.4
RPMI 5 mM glucose + 10% dialyzed FBS, 1.71 µM | 62 | 53.9 | 65.2
RPMI 5 mM glucose + 10% dialyzed FBS, 5.12 µM | 62 | 39.6 | 56.8
RPMI 5 mM glucose + 10% dialyzed FBS, 15.4 µM | 55.1 | 31.3 | 44.8
RPMI 5 mM glucose + 10% dialyzed FBS, 46.1 µM | 52.4 | 41.4 | 50.9

AUC of viability dose-response curve
Details | HPLM + 10% dialyzed FBS | RPMI 5 mM glucose + 10% FBS | RPMI 5 mM glucose + 10% dialyzed FBS
[4] | 359 | 367 | 338
[5] | 389 | 324 | 336

CN(C)c1cc(NC(=O)CNC(C)(C)C)c(O)c2c1C[C@H]1C[C@H]3[C@H](N(C)C)C(O)=C(C(N)=O)C(=O)[C@@]3(O)C(O)=C1C2=O
AUC of viability dose-response curve
Details | [4] | [5] | [6]
HPLM + 10% dialyzed FBS | 466 | 457 | 452
RPMI 5 mM glucose + 10% FBS | 471 | 470 | 453
RPMI 5 mM glucose + 10% dialyzed FBS | 457 | 454 | 436

C[C@]12CC(=O)[C@H]3[C@@H](CC\C4=C\C(=O)\C=C/[C@]34C)[C@@H]1CC[C@]2(O)C(=O)CO
AUC of viability dose-response curve
Details | [4] | [5] | [6]
HPLM + 10% dialyzed FBS | 472 | 458 | 470
RPMI 5 mM glucose + 10% FBS | 461 | 461 | 457
RPMI 5 mM glucose + 10% dialyzed FBS | 471 | 438 | 469

COc1cc2c(Oc3ccc4[nH]c(C)cc4c3F)ncnc2cc1OCCCN1CCCC1
AUC of viability dose-response curve
Details | [4] | [5] | [6]
HPLM + 10% dialyzed FBS | 453 | 448 | 382
RPMI 5 mM glucose + 10% FBS | 452 | 449 | 380
RPMI 5 mM glucose + 10% dialyzed FBS | 463 | 448 | 356

CCN(CC)C(=O)C1=CC=C(C=C1)C/2=C/C3(CCNCC3)OC4=CC=CC(=C24)O
AUC of viability dose-response curve
Details | [4] | [5] | [6]
HPLM + 10% dialyzed FBS | 287 | 459 | 472
RPMI 5 mM glucose + 10% FBS | 329 | 449 | 464
RPMI 5 mM glucose + 10% dialyzed FBS | 345 | 449 | 464

CC(=O)NCC(=O)N1[C@@H]2CC[C@H]1c1ccc(Nc3ncc(C(F)(F)F)c(NC4CCC4)n3)cc12
AUC of viability dose-response curve
Details | [4] | [5] | [6]
HPLM + 10% dialyzed FBS | 358 | 258 | 247
RPMI 5 mM glucose + 10% FBS | 344 | 268 | 227
RPMI 5 mM glucose + 10% dialyzed FBS | 336 | 290 | 227

O=C(OCC#CCSc1nnc(-c2cccc3ccccc23)o1)c1cc2ccccc2s1
[2], HPLM + 10% dialyzed FBS
Details | cell viability [%]
0.000781 µM | 119
0.00234 µM | 122
0.00702 µM | 121
0.0211 µM | 124
0.0632 µM | 42.3
0.19 µM | 132
0.569 µM | 130
1.71 µM | 115
5.12 µM | 71.7
15.4 µM | 128
46.1 µM | 113

AUC of viability dose-response curve
Details | HPLM + 10% dialyzed FBS | RPMI 5 mM glucose + 10% FBS | RPMI 5 mM glucose + 10% dialyzed FBS
[4] | 431 | 443 | 455
[5] | 451 | 444 | 468

N#Cc1ccc(C(c2ccc(C#N)cc2)n2cncn2)cc1
[2], HPLM + 10% dialyzed FBS
Details | cell viability [%]
0.000781 µM | 121
0.00234 µM | 118
0.00702 µM | 131
0.0211 µM | 130
0.0632 µM | 40.1
0.19 µM | 129
0.569 µM | 140
1.71 µM | 131
5.12 µM | 54.4
15.4 µM | 110
46.1 µM | 111

AUC of viability dose-response curve
Details | HPLM + 10% dialyzed FBS | RPMI 5 mM glucose + 10% FBS | RPMI 5 mM glucose + 10% dialyzed FBS
[4] | 442 | 450 | 466
[5] | 461 | 460 | 451
